Results reported in patent US6916915B1, “Stressor regulated genes” (Duke University, priority 1998, dated 2005).

System: C. elegans
Test: Reverse-Northern dot-blot analysis of steady-state mRNA levels after cadmium exposure
Assay type: in vivo, Caenorhabditis elegans
Settings: for Fold-change in mRNA levels following cadmium exposure, DDRT1: clone DDRT1; for Fold-change in mRNA levels following cadmium exposure, DDRT2: clone DDRT2; for Fold-change in mRNA levels following cadmium exposure, DDRT3: clone DDRT3; for Fold-change in mRNA levels following cadmium exposure, DDRT4: clone DDRT4; for Fold-change in mRNA levels following cadmium exposure, DDRT5: clone DDRT5; for Fold-change in mRNA levels following cadmium exposure, DDRT6: clone DDRT6; for Fold-change in mRNA levels following cadmium exposure, DDRT7: clone DDRT7; for Fold-change in mRNA levels following cadmium exposure, DDRT9: clone DDRT9; for Fold-change in mRNA levels following cadmium exposure, DDRT10: clone DDRT10; for Fold-change in mRNA levels following cadmium exposure, DDRT12: clone DDRT12; for Fold-change in mRNA levels following cadmium exposure, DDRT15: clone DDRT15; for Fold-change in mRNA levels following cadmium exposure, DDRT16: clone DDRT16; for Fold-change in mRNA levels following cadmium exposure, DDRT17: clone DDRT17; for Fold-change in mRNA levels following cadmium exposure, DDRT18: clone DDRT18; for Fold-change in mRNA levels following cadmium exposure, DDRT19: clone DDRT19; for Fold-change in mRNA levels following cadmium exposure, DDRT20: clone DDRT20; for Fold-change in mRNA levels following cadmium exposure, DDRT21D: clone DDRT21D; for Fold-change in mRNA levels following cadmium exposure, DDRT21U: clone DDRT21U; for Fold-change in mRNA levels following cadmium exposure, DDRT22: clone DDRT22
Experimental: Growth and isolation of C. elegans—The N2 strain of C. elegans was grown in liquid S medium (0.1M NaCl, 50 mM potassium phosphate, pH 6.0, 5 μg/ml cholesterol, 10 mM potassium citrate, 3 mM CaCl2, 3 mM MgCl2, 50 μM EDTA, 25 μM FeSO4, 10 μM MnCl2, 10 μM ZnSO4 and 1 μM CuSO4) using E. coli OP50 as a food source (Brenner, S. (1974) Genetics 77, 71-94). In experiments where nematodes were exposed to cadmium, the medium was supplemented with 100 μM CdCl2 (Freedman, J. H. et al. (1993) J. Biol. Chem. 268, 2554-2564). C. elegans were grown in the presence of metal for 8 h or 24 h at ˜20° C. Nematodes were then collected following centrifugation at 800×g for 5 min. Pellets were suspended in 5 mM NaCl containing 35% sucrose (final concentration) and viable nematodes were collected from the top of the solution following centrifugation at 1000×g for 5 min at 4° C. Nematodes were then washed three times by suspension in M9 buffer (22 mM KH2PO4, 42 mM Na2HPO4, 85 mM NaCl, 1 mM MgSO4) followed by sedimentation at 800×g. Washed nematode pellets were finally suspended in a small volume of M9 buffer, rapidly frozen in liquid nitrogen and stored at −80° C.
RNA isolation—Total RNA was isolated from mix-stage populations of C. elegans exposed to 100 μM CdCl2 for 8 h and 24 h and control, non-exposed nematodes. Frozen worms were first ground into a fine powder using a liquid nitrogen-cooled mortar and pestle. Powdered C. elegans (200 mg) were then homogenized in 2 ml of TRIzol (GIBCO/BRL). RNA was then collected from the aqueous phase following the addition of chloroform, precipitated by adding isopropyl alcohol and then air-dried. The dried RNA pellet was then dissolved in diethyl pyrocarbonate (DEPC)-treated water. For some experiments, poly(A^+) RNA was subsequently isolated using the Poly(A) Tract System following manufacturer's instructions (Promega).
Reverse-Northern dot-blot analysis—Changes in the steady-state levels of differentially expressed mRNAs in C. elegans following cadmium-exposure were also determined by reverse-Northern dot-blot analysis by the modified procedure of Zhang et al. (Cummins, C. et al. (1988) Mol. Cell. Biol 8, 5334-5349). Briefly, differentially expressed cDNAs that were previously cloned into pGEM-T were amplified using primers that anneal to the T7 and SP6 RNA polymerase binding sites, which flank the cDNA insert. cDNAs were amplified and subsequently purified using a PCR-spin column (QIAGEN). Approximately 100 ng of each amplified cDNA were denatured by mixing with 0.1N NaOH (final concentration) and incubating at 100° C. for 5 min. The solution was neutralized following the addition of 3×SSC (final concentration) and then the volume adjusted to 700 μl with dH2O. 200-μl of each sample was applied to one of three Nytran membranes in a Bio-Dot microfiltration apparatus (BioRad). Membranes were then baked for 30 min at 80° C. under vacuum. As positive and loading controls 100 ng of mtl-1 cDNA and myosin light chain DNA were also applied to each membrane, respectively.
Three pools of single-stranded ^32P-labeled cDNA probes were prepared from poly(A^+) RNA isolated from control, 8 h and 24 h cadmium-treated nematodes. cDNAs were generated from a mixture of mRNAs in a 25 μl reverse transcriptase reactions which contained 2 μg poly(A^+) RNA, 1 μg oligo (dT)18 primer, reverse transcriptase buffer, 800 μM DATP, dGTP and dTTP, 4.5 μM dCTP, 100 μCi [α-^32P]dCTP (3000 Ci/mmol), 20 units RNase inhibitor and 200 units Moloney murine leukemia virus reverse transcriptase. The reaction mixture was incubated at 37° C. for 1 h, then at 95° C. for 5 min to terminate the reaction. Unincorporated nucleotides were separated from the labeled cDNAs by using a G-25 spin column (Boehringer Mannheim). Equal amounts (5×10^6 cpm/ml) of each radioactive cDNA mixture were heat-denatured and then hybridized separately to one of the three membranes at 42° C. for 16 h in hybridization buffer. […]

[1] = cadmium exposure, time not stated
[2] = 8 hours, 100 μM CdCl2, relative to non-exposed, normalized to myosin light chain mRNA
[3] = 24 hours, 100 μM CdCl2, relative to non-exposed, normalized to myosin light chain mRNA

With [Cl][Cd][Cl] [cadmium, CdCl2] the “increase in level of expression, forty-six of the clones” value (24-h exposure) was “up to 6 fold”, the “level of expression of myosin light-chain mRNA” value (after cadmium treatment, loading control on dot blot) was “remained constant” and the “induction of mtl-1 mRNA” value (after cadmium treatment, positive control on dot blot, time not stated) was ~5 fold. For the same compound, the “increase in the level of mRNA DDRT30 (collagen col-36)” value [1] was 3 fold, the “increase in the level of mRNA DDRT33D (predicted cuticle collagen)” value [1] was 3 fold and the “Fold-change in mRNA levels following cadmium exposure, DDRT1” value [2] was 2.2 fold. The “Fold-change in mRNA levels following cadmium exposure, DDRT1” value [3] was 3.2 fold, the “Fold-change in mRNA levels following cadmium exposure, DDRT2” value [2] was 3.1 fold and the “Fold-change in mRNA levels following cadmium exposure, DDRT2” value [3] was 3.9 fold. The “Fold-change in mRNA levels following cadmium exposure, DDRT3” value [2] was 2.0 fold, the “Fold-change in mRNA levels following cadmium exposure, DDRT3” value [3] was 2.4 fold and the “Fold-change in mRNA levels following cadmium exposure, DDRT4” value [2] was 2.5 fold. For the same compound, the “Fold-change in mRNA levels following cadmium exposure, DDRT4” value [3] was 2.8 fold, the “Fold-change in mRNA levels following cadmium exposure, DDRT5” value [2] was 3.2 fold and the “Fold-change in mRNA levels following cadmium exposure, DDRT5” value [3] was 3.9 fold. For the same compound, the “Fold-change in mRNA levels following cadmium exposure, DDRT6” value [2] was 4.7 fold, the “Fold-change in mRNA levels following cadmium exposure, DDRT6” value [3] was 5.0 fold and the “Fold-change in mRNA levels following cadmium exposure, DDRT7” value [2] was 3.6 fold. The “Fold-change in mRNA levels following cadmium exposure, DDRT7” value [3] was 4.0 fold, the “Fold-change in mRNA levels following cadmium exposure, DDRT9” value [2] was 3.5 fold and the “Fold-change in mRNA levels following cadmium exposure, DDRT9” value [3] was 2.8 fold. The “Fold-change in mRNA levels following cadmium exposure, DDRT10” value [2] was 2.7 fold, the “Fold-change in mRNA levels following cadmium exposure, DDRT10” value [3] was 2.5 fold and the “Fold-change in mRNA levels following cadmium exposure, DDRT12” value [2] was 3.0 fold. For the same compound, the “Fold-change in mRNA levels following cadmium exposure, DDRT12” value [3] was 3.2 fold, the “Fold-change in mRNA levels following cadmium exposure, DDRT15” value [2] was 2.8 fold and the “Fold-change in mRNA levels following cadmium exposure, DDRT15” value [3] was 3.1 fold. For the same compound, the “Fold-change in mRNA levels following cadmium exposure, DDRT16” value [2] was 4.3 fold, the “Fold-change in mRNA levels following cadmium exposure, DDRT16” value [3] was 4.9 fold and the “Fold-change in mRNA levels following cadmium exposure, DDRT17” value [2] was 3.7 fold. For the same compound, the “Fold-change in mRNA levels following cadmium exposure, DDRT17” value [3] was 5.7 fold, the “Fold-change in mRNA levels following cadmium exposure, DDRT18” value [2] was 2.2 fold and the “Fold-change in mRNA levels following cadmium exposure, DDRT18” value [3] was 2.9 fold. For the same compound, the “Fold-change in mRNA levels following cadmium exposure, DDRT19” value [2] was 2.7 fold, the “Fold-change in mRNA levels following cadmium exposure, DDRT19” value [3] was 3.9 fold and the “Fold-change in mRNA levels following cadmium exposure, DDRT20” value [2] was 2.6 fold. The “Fold-change in mRNA levels following cadmium exposure, DDRT20” value [3] was 2.8 fold, the “Fold-change in mRNA levels following cadmium exposure, DDRT21D” value [2] was 2.2 fold and the “Fold-change in mRNA levels following cadmium exposure, DDRT21D” value [3] was 4.2 fold. For the same compound, the “Fold-change in mRNA levels following cadmium exposure, DDRT21U” value [2] was 2.2 fold, the “Fold-change in mRNA levels following cadmium exposure, DDRT21U” value [3] was 2.6 fold and the “Fold-change in mRNA levels following cadmium exposure, DDRT22” value [2] was 2.5 fold. For the same compound, the “Fold-change in mRNA levels following cadmium exposure, DDRT22” value [3] was 3.3 fold and the “Fold-change in mRNA levels following cadmium exposure, DDRT23” value (clone DDRT23, 8 hours, 100 μM CdCl2, relative to non-exposed, normalized to myosin light chain mRNA) was 3.3 fold.
